Reference: US20260308158A1, “TARGETING RNAS ASSOCIATED WITH TAUOPATHIES WITH SMALL MOLECULES” (University of Florida Research Foundation, Incorporated, priority 2023, published 2026)
Read-outs that look alike come from different tables or passages of the source.

What was measured:
[1] = system: MAPT exon 10 splicing in primary neurons from htau mice; assay: 4R/3R MAPT mRNA by RT-qPCR in primary neurons from htau mice; type: cell-based, human MAPT in htau transgenic mouse neurons; conditions: 48 h
Method: RNA Isolation and Real-Time Quantitative PCR (RT-qPCR). HeLa cells were treated as described in the Luciferase Reporter assay to Study Exon 10 Alternative Splicing. LAN5 cells were seeded in 12-well plates at 0.2×10^6 cells per well, treated with compound or ASO, and incubated for 48 h. Compound stocks prepared in DMSO and ASO stocks prepared in water were diluted in growth medium and added to cells. Total RNA was extracted from cells and analyzed via RT-qPCR to determine levels of 3R and 4R tau mRNA. In brief, the cells were washed with 1×DPBS and then lysed in the well using 300 μL of Lysis Buffer provided in a Quick-RNA MiniPrep kit (Zymo Research), which was used to extract total RNA per the manufacturer's protocol including the on-column DNase I digestion. The concentration of total RNA was measured by NanoDrop 2000 (Thermo Fisher Scientific). Only samples with OD260/OD280>1.8 were carried forward for analysis. Reverse transcription (RT) was carried out on 200 ng of total RNA using a qScript cDNA synthesis kit (QuantaBio) in a total volume of 10 μL according to the manufacturer's protocol. An Applied Biosystems QS5 384-well PCR system was used to complete qPCR reactions with Power SYBR Green Master Mix (Life Technologies), 600 nM each primer (Table S3), 20 ng of cDNA (1 μL of the RT reaction), in a total volume of 33 μL. Technical triplicates (10 μL each) were aliquoted into 384-well qPCR plates (Applied biosystems, 4483285). Subsequent qPCR analysis was performed using an Applied Biosystems QS5 384-well PCR system (software v.1.3.0). 4R/3R ratio were analyzed using ΔΔCt method using Equation 2: […]
Isolation and Treatment of Primary Neurons from Humanized tau (hTau) Transgenic Mice. All animal studies were completed as approved by the Scripps Florida Institutional Animal Care and Use Committee. […]

[2] = Plasma and brain exposure in mice; type: in vivo, C57BL/6J mouse; conditions: mouse, po, 100 mg/kg p.o., C57BL/6J mice
Method: Quantitation of 2 in Mouse Plasma and Brain. Male C57BL/6J mice (n=3 per time point; 5-7 weeks) were orally administered with 2 (100 mg/kg) in a formulation of DMSO/Tween-80/H2O (5/5/90). After 2, 12, 24, and 48 h, mice were euthanized, and blood and brain were collected. Brains were immediately frozen. Blood was centrifuged to generate plasma and immediately frozen. On the day of analysis, brains were homogenized, mixed with a 5-times volume of acetonitrile, and filtered. The plasma was also filtered. Drug levels were determined by mass spectrometry using an ABSciex 5500 mass spectrometer with multiple reaction monitoring. Compound 2 was detected using the mass transition 435->236.

[3] = Body weight / tolerability, htau mice; type: in vivo, htau mouse; conditions: 100 mg/kg p.o. q.o.d., 20 days
Excerpt: hTau Mice Studies. htau mice and WT mice (C57BL/6J) were purchased from Jackson Laboratories. htau mice were maintained in-house through breeding between htau+/− mice. Genotype was confirmed by PCR amplification as previously described.^18 Only homozygous mice were used in in vivo studies. Mice were randomly assigned to a treatment group, which were age- and gender-matched (n=X). In these studies, mice were >9 months of age since cognitive and physiological impairments in htau mice was age-dependent and were not presented in young mice (<4 months) with early-stage tau pathology.^42 Mice were orally administered vehicle (5/5/90 DMSO/Tween-80/H2O) or 100 mg/kg of 2 in the same formulation every other day (q.o.d.). During the treatment period, nesting activity was assessed, as describe in Nesting Activity below. After 20 days, the mice were euthanized (in accordance with guidelines provided by the American Veterinarian Medical Association), and the brain was harvested for analysis. One hemisphere of the brain was frozen at −80° C. for RT-qPCR analyses while the other was used for histological studies.

SMILES: COc1cc(N)ncc1CCCN(C)CCCn1cnc2c3ccccc3n(C)c2c1=O [Compound 2, 3-(3-((3-(6-amino-4-methoxypyridin-3-yl)propyl)(methyl)amino)propyl)-5-methyl-3,5-dihydro-4H-pyrimido[5,4-b]indol-4-one]
- 4R/3R ratio and PSI10 [1]: dose dependent reduction
- relative potency (4R/3R ratio and PSI10) [1]: more potent than 1
- concentration at 48 h ([2]; brain, read-out: brain concentration): 2900 ± 1600 nM
- concentration at 48 h ([2]; plasma, read-out: plasma concentration): 500 ± 300 nM
- change in weight [3]: no change in the weight
- tolerability [3]: well tolerated
